Patent US20190117670A1, “LONGER-ACTING PROGESTIN PRODRUG CONTRACEPTIVES” (Evestra, Inc., priority 2017, published 2019)

tested on: cycling rats of Sprague-Dawley strain; assay: Estrous suppression assay (long term injectable contraceptive), anti-ovulatory activity in female rat model; type: in vivo; settings: 2 mg/rat, single s.c. injection of milled suspension, adult female rats, vaginal smear until cycling re-established
Procedure: A stainless steel grinding bowl with a lid and seal along with three 10 mm stainless steel balls were used to formulate suspensions for injection. The compounds were weighed and added to the grinding bowl and steel balls. 1.5 mL of formulation vehicle was added to the grinding bowl, via pipette. The milling conditions used as listed: 20 minutes, 20 Hz. After milling, the suspension was transferred to a volumetric flask. Formulation vehicle was used to dilute the milled suspension to produce the desired injection dose.
Protocol: Testing Long Term Injectable Contraceptive
Adult female rats (180-200 g body weight) were used for the study (adapted over 1 week before starting the study).
For each compound, two doses were tested (2 and 4 mg/rat).
Long acting properties of each preparation had been determined in an estrous suppression assay using virgin, mature (180-200 g) cycling rats of Sprague-Dawley strain. Upon receipt the animals were smeared daily (procedure described as below) for cyclicity and those who were showing two consecutive cycles were used for the study. Each animal was injected subcutaneously (s.c) with 0.5 ml of the test preparation (in the vehicle as described above) on the same day regardless of the stage of the cycle. Each compound was initially tested in 6 rats. Everyday excluding weekend, smears were taken starting on the day after injection and continued until such time that cornification of vaginal epithelium was observed and cycling was re-established (Bialy G, Blye R P, Enever R P, Naqvi R H, Lindberg M C. Long-acting contraceptive agents: structure activity relationships in a series of norethisterone and levonorgestrel esters. Steroids 1983, v 41, p 361).
Epithelium and lamina propria of the vagina undergo characteristic changes during the cycle. This cyclical changes was used in rodents to stage cycle diagnosis (1). During the cycle, it comes to a complete replacement of the epithelium. In order to determine the stage of the cycle, vaginal solution/mucus was collected as follows. The rat was fixed with one hand. With the other hand, a small moistened cotton swab (2-3 mm diameter) was inserted into the vagina and removed by gently rotating cell material. This was done with caution, since excessive irritation could induce a pseudopregnancy stage in animals. A drop of water on a slide was applied and dabbed the cotton swab in it. The smear was assessed under the microscope (Nikon Eclipse Ti, Magnification: 10×0.25) (Nelson J F, Felicio L S, Randall P K, Sims C, Finch C E. A longitudinal study of estrous cyclicity in aging C57BL/6J mice: I. Cycle frequency, length and vaginal cytology. Biol Reprod. 1982 September; 27(2):327-39).
The smear of diestrous is characterized by some neutrophils and a few small degenerated, irregularly shaped epithelial cells.
The microscopic image of the smear contains a moderate number of epithelial cells with large nuclei, which are usually visible as cell clusters.
The lamina propria leukocytes migrate into the epithelium. The smear is characterized by many big horny epithelial cells.
In metestrous stage, masses of polymorphonuclear cells with some cornified epithelial cells in the smear will become visible.

Row | Compound | Rat Anti-ovulatory Activity Days +/− 2
1 | C#C[C@]1(OC(=O)CNc2ccccc2)CCC2C3CCC4=CC(=O)CCC4C3CC[C@@]21CC (some centres unmarked) [EC646] | 13 days
2 | C#C[C@]1(OC(=O)COc2ccc3c(c2)OCO3)CCC2C3CCC4=CC(=O)CCC4C3CC[C@@]21CC (some centres unmarked) [EC644] | 20 days
3 | C#C[C@]1(OC(=O)COc2ccc(S(N)(=O)=O)cc2)CCC2C3CCC4=CC(=O)CCC4C3CC[C@@]21CC (some centres unmarked) [EC624] | 20.5 days
4 | C#C[C@]1(OC(=O)COc2ccccc2OC)CCC2C3CCC4=CC(=O)CCC4C3CC[C@@]21CC (some centres unmarked) [EC635] | 13 days
5 | C#C[C@]1(OC(=O)COc2ccccc2)CCC2C3CCC4=CC(=O)CCC4C3CC[C@@]21CC (some centres unmarked) [EC625] | 43 days
6 | C#C[C@]1(OC(=O)CSc2ccccc2)CCC2C3CCC4=CC(=O)CCC4C3CC[C@@]21CC (some centres unmarked) [EC647] | 20 days
7 | C#C[C@]1(OC(=O)COc2ccc(-c3ccccc3)cc2)CCC2C3CCC4=CC(=O)CCC4C3CC[C@@]21CC (some centres unmarked) [EC655] | 37 days
8 | C#C[C@]1(OC(=O)COc2ccccc2C)CCC2C3CCC4=CC(=O)CCC4C3CC[C@@]21CC (some centres unmarked) [EC632] | 8.5 days
9 | C#C[C@]1(OC(=O)COc2ccc(S(C)(=O)=O)cc2)CCC2C3CCC4=CC(=O)CCC4C3CC[C@@]21CC (some centres unmarked) [EC645] | 31 days
10 | C#C[C@]1(OC(=O)COc2ccc(Cl)cc2)CCC2C3CCC4=CC(=O)CCC4C3CC[C@@]21CC (some centres unmarked) [EC631] | 33.5 days
11 | C#C[C@]1(OC(=O)COc2ccc(S(N)(=O)=O)c(F)c2)CCC2C3CCC4=CC(=O)CCC4C3CC[C@@]21CC (some centres unmarked) [EC653] | 15 days
12 | C#C[C@]1(OC(=O)COc2ccccc2F)CCC2C3CCC4=CC(=O)CCC4C3CC[C@@]21CC (some centres unmarked) [EC642] | 41 days
13 | C#C[C@]1(OC(=O)CCc2ccccc2OC)CCC2C3CCC4=CC(=O)CCC4C3CC[C@@]21CC (some centres unmarked) [EC643] | 3 days
14 | C#C[C@]1(OC(=O)COc2cccc(OC)c2)CCC2C3CCC4=CC(=O)CCC4C3CC[C@@]21CC (some centres unmarked) [EC636] | 13 days
15 | C[C@H](O)C(=O)[C@@]1(C)CCC2C3CCC4=CC(=O)CCC4=C3CC[C@@]21C (some centres unmarked) [EC213 TMG, reference compound] | 19 days
16 | CC(=O)O[C@]1(C(C)=O)CC[C@H]2[C@@H]3C[C@H](C)C4=CC(=O)CC[C@]4(C)[C@H]3CC[C@@]21C [MPA, medroxyprogesterone acetate, reference compound] | 22 days

Row | Compound | Rat Anti-ovulatory Activity Days +/− 2
17 | C#C[C@]1(OC(=O)COc2ccc(F)cc2)CCC2C3CCC4=CC(=O)CCC4C3CC[C@@]21CC (some centres unmarked) [EC640] | 31 days
18 | C#C[C@]1(OC(=O)CCC)CCC2C3CCC4=CC(=O)CCC4C3CC[C@@]21CC (some centres unmarked) [EC600 LB, Levonorgestrel butanoate, reference compound] | 33 days
19 | C#C[C@]1(OC(=O)COc2cccnc2)CCC2C3CCC4=CC(=O)CCC4C3CC[C@@]21CC (some centres unmarked) [EC641] | 23 days
20 | C#C[C@]1(OC(=O)COc2ccccc2Cl)CCC2C3CCC4=CC(=O)CCC4C3CC[C@@]21CC (some centres unmarked) [EC633] | 16.3 days
21 | C#C[C@]1(OC(=O)[C@H](C)Oc2ccccc2)CCC2C3CCC4=CC(=O)CCC4C3CC[C@@]21CC (some centres unmarked) [EC638] | 8 days
22 | C#C[C@]1(OC(=O)COc2ccc(S(N)(=O)=O)cc2C)CCC2C3CCC4=CC(=O)CCC4C3CC[C@@]21CC (some centres unmarked) [EC649] | 18.5 days
23 | C#C[C@]1(OC(=O)COc2cccc(S(N)(=O)=O)c2)CCC2C3CCC4=CC(=O)CCC4C3CC[C@@]21CC (some centres unmarked) [EC601] | 10 days
24 | C#C[C@]1(OC(=O)COc2ccc(S(N)(=O)=O)cc2Cl)CCC2C3CCC4=CC(=O)CCC4C3CC[C@@]21CC (some centres unmarked) [EC648] | 18 days
25 | C#C[C@]1(OC(=O)COc2ccccc2)CCC2C3CCC4=CC(=O)CCC4C3C(=C)C[C@@]21CC (some centres unmarked) [EC651] | 52 days
26 | C#C[C@]1(OC(=O)COc2ccc(C#N)cc2)CCC2C3CCC4=CC(=O)CCC4C3CC[C@@]21CC (some centres unmarked) [EC658] | 29 days
27 | C#C[C@]1(OC(=O)COc2cccc(-c3ccccc3)c2)CCC2C3CCC4=CC(=O)CCC4C3CC[C@@]21CC (some centres unmarked) [EC654] | 8 days
28 | C#C[C@]1(OC(=O)COc2cccc(F)c2)CCC2C3CCC4=CC(=O)CCC4C3CC[C@@]21CC (some centres unmarked) [EC639] | 31 days
29 | C#C[C@]1(OC(=O)COc2ccc(OC)cc2)CCC2C3CCC4=CC(=O)CCC4C3CC[C@@]21CC (some centres unmarked) [EC634] | 30 days
30 | C#C[C@]1(OC(=O)COc2cc(C)on2)CCC2C3CCC4=CC(=O)CCC4C3CC[C@@]21CC (some centres unmarked) [EC652] | 27 days
31 | C#C[C@]1(OC(=O)COc2ccc(S(N)(=O)=O)c(Cl)c2)CCC2C3CCC4=CC(=O)CCC4C3CC[C@@]21CC (some centres unmarked) [EC650] | 18.5 days

same assay, conditions: 4 mg/rat, single s.c. injection of milled suspension, adult female rats, vaginal smear until cycling re-established

Row | Compound | Rat Anti-ovulatory Activity Days +/− 2
32 | C#C[C@]1(OC(=O)CCc2ccccc2)CCC2C3CCC4=CC(=O)CCC4C3CC[C@@]21CC (some centres unmarked) [EC626] | 20 days
33 | C#C[C@]1(OC(=O)COc2ccccc2)CCC2C3CCC4=CC(=O)CCC4C3CC[C@@]21CC (some centres unmarked) [EC625] | 69 days
34 | C#C[C@]1(OC(=O)COc2ccc(C)cc2)CCC2C3CCC4=CC(=O)CCC4C3CC[C@@]21CC (some centres unmarked) [EC629] | 44.8 days
35 | C#C[C@]1(OC(=O)COc2cccc(Cl)c2)CCC2C3CCC4=CC(=O)CCC4C3CC[C@@]21CC (some centres unmarked) [EC630] | 46.5 days
36 | CC(=O)O[C@]1(C(C)=O)CC[C@H]2[C@@H]3C[C@H](C)C4=CC(=O)CC[C@]4(C)[C@H]3CC[C@@]21C [MPA, medroxyprogesterone acetate, reference compound] | 40 days
37 | C#C[C@]1(OC(=O)/C=C/c2ccccc2)CCC2C3CCC4=CC(=O)CCC4C3CC[C@@]21CC (some centres unmarked) [EC627] | 6 days
38 | C#C[C@]1(OC(=O)COc2cccc(C)c2)CCC2C3CCC4=CC(=O)CCC4C3CC[C@@]21CC (some centres unmarked) [EC628] | 36 days
39 | C#C[C@]1(OC(=O)COc2cccc(S(N)(=O)=O)c2)CCC2C3CCC4=CC(=O)CCC4C3CC[C@@]21CC (some centres unmarked) [EC601] | 34 days

tested on: not given; assay: not given; settings: cited from earlier work

Row | Compound | contraceptive effect in the clinic
40 | C#C[C@]1(OC(=O)CCC)CCC2C3CCC4=CC(=O)CCC4C3CC[C@@]21CC (some centres unmarked) [EC600 LB, Levonorgestrel butanoate, reference compound] | failed in the clinic to reach a contraceptive effect for up to 6 month

tested on: not given; assay: not given; settings: 3 month injectable product Depo Provera; cited from earlier work

Row | Compound | undesirable effects
41 | CC(=O)O[C@]1(C(C)=O)CC[C@H]2[C@@H]3C[C@H](C)C4=CC(=O)CC[C@]4(C)[C@H]3CC[C@@]21C [MPA, medroxyprogesterone acetate, reference compound] | increase of insulin levels, reduction of bone mass density, weight gain and enhanced risks for HIV infections
